Laboratory results reported in the NIST ThermoML archive (doi:10.1021/je050175u).
Where “and” joins values, the source holds several entries; their conditions need not be identical. Identical values can stand only once. ± gives the expanded uncertainty stated by the source.

Test: excess molar enthalpy (molar enthalpy of mixing); xn = mol fraction of the nth substance listed
Details: Liquid, Flow calorimetry

CC(C)CO [2-methyl-1-propanol] + COC(C)=O
Details	excess molar enthalpy
298.15 K, 5000 kPa, x2 = 0.303	0.341 ± 0.00359 kcal/mol
298.15 K, 5000 kPa, x2 = 0.352	0.368 ± 0.00406 kcal/mol
298.15 K, 5000 kPa, x2 = 0.402	0.388 ± 0.00406 kcal/mol
298.15 K, 5000 kPa, x2 = 0.453	0.401 ± 0.0043 kcal/mol
298.15 K, 5000 kPa, x2 = 0.504	0.405 ± 0.0043 kcal/mol
298.15 K, 5000 kPa, x2 = 0.553	0.402 ± 0.0043 kcal/mol
298.15 K, 5000 kPa, x2 = 0.603	0.392 ± 0.00406 kcal/mol
298.15 K, 5000 kPa, x2 = 0.654	0.374 ± 0.00406 kcal/mol
298.15 K, 5000 kPa, x2 = 0.702	0.347 ± 0.00359 kcal/mol
298.15 K, 5000 kPa, x2 = 0.751	0.315 ± 0.00335 kcal/mol
298.15 K, 5000 kPa, x2 = 0.801	0.271 ± 0.00287 kcal/mol
298.15 K, 5000 kPa, x2 = 0.851	0.219 ± 0.00239 kcal/mol
298.15 K, 5000 kPa, x2 = 0.902	0.154 ± 0.00182 kcal/mol
298.15 K, 5000 kPa, x2 = 0.951	0.0827 ± 0.00112 kcal/mol
298.15 K, 10000 kPa, x2 = 0.049	0.0751 ± 0.00172 kcal/mol
298.15 K, 10000 kPa, x2 = 0.099	0.146 ± 0.00215 kcal/mol
298.15 K, 10000 kPa, x2 = 0.15	0.208 ± 0.00263 kcal/mol
298.15 K, 10000 kPa, x2 = 0.199	0.259 ± 0.00311 kcal/mol
298.15 K, 10000 kPa, x2 = 0.249	0.303 ± 0.00335 kcal/mol
298.15 K, 10000 kPa, x2 = 0.3	0.339 ± 0.00359 kcal/mol
298.15 K, 10000 kPa, x2 = 0.349	0.366 ± 0.00406 kcal/mol
298.15 K, 10000 kPa, x2 = 0.401	0.388 ± 0.00406 kcal/mol
298.15 K, 10000 kPa, x2 = 0.449	0.4 ± 0.0043 kcal/mol
298.15 K, 10000 kPa, x2 = 0.5	0.404 ± 0.0043 kcal/mol
298.15 K, 10000 kPa, x2 = 0.55	0.402 ± 0.0043 kcal/mol
298.15 K, 10000 kPa, x2 = 0.6	0.392 ± 0.0043 kcal/mol
298.15 K, 10000 kPa, x2 = 0.65	0.374 ± 0.00406 kcal/mol
298.15 K, 10000 kPa, x2 = 0.699	0.349 ± 0.00382 kcal/mol
298.15 K, 10000 kPa, x2 = 0.752	0.313 ± 0.00359 kcal/mol
298.15 K, 10000 kPa, x2 = 0.798	0.272 ± 0.00311 kcal/mol
298.15 K, 10000 kPa, x2 = 0.849	0.218 ± 0.00263 kcal/mol
298.15 K, 10000 kPa, x2 = 0.901	0.154 ± 0.00222 kcal/mol
298.15 K, 10000 kPa, x2 = 0.95	0.081 ± 0.00182 kcal/mol
308.15 K, 10000 kPa, x2 = 0.047	0.0714 ± 0.00177 kcal/mol
308.15 K, 10000 kPa, x2 = 0.098	0.148 ± 0.00225 kcal/mol
308.15 K, 10000 kPa, x2 = 0.146	0.213 ± 0.00263 kcal/mol
308.15 K, 10000 kPa, x2 = 0.193	0.266 ± 0.00311 kcal/mol
308.15 K, 10000 kPa, x2 = 0.243	0.314 ± 0.00359 kcal/mol
308.15 K, 10000 kPa, x2 = 0.291	0.352 ± 0.00382 kcal/mol
308.15 K, 10000 kPa, x2 = 0.343	0.383 ± 0.00406 kcal/mol
308.15 K, 10000 kPa, x2 = 0.39	0.404 ± 0.0043 kcal/mol
308.15 K, 10000 kPa, x2 = 0.492	0.426 kcal/mol and 0.423 kcal/mol
308.15 K, 10000 kPa, x2 = 0.541	0.424 ± 0.00454 kcal/mol
308.15 K, 10000 kPa, x2 = 0.591	0.415 ± 0.0043 kcal/mol
308.15 K, 10000 kPa, x2 = 0.641	0.398 ± 0.0043 kcal/mol
308.15 K, 10000 kPa, x2 = 0.692	0.371 ± 0.00406 kcal/mol
308.15 K, 10000 kPa, x2 = 0.744	0.335 ± 0.00359 kcal/mol
308.15 K, 10000 kPa, x2 = 0.794	0.291 ± 0.00335 kcal/mol
308.15 K, 10000 kPa, x2 = 0.896	0.168 ± 0.00232 kcal/mol
308.15 K, 10000 kPa, x2 = 0.947	0.0912 ± 0.00194 kcal/mol

COC(C)=O [methyl ethanoate] + CC(C)O
excess molar enthalpy [kcal/mol]
Details	5000 kPa	10000 kPa
298.15 K, x1 = 0.1	0.133 ± 0.00191	0.132 ± 0.00194
298.15 K, x1 = 0.151	0.19 ± 0.00237	0.19 ± 0.00239
298.15 K, x1 = 0.199	0.235 ± 0.00263	–
298.15 K, x1 = 0.201	–	0.238 ± 0.00287
298.15 K, x1 = 0.249	0.276 ± 0.00311	–
298.15 K, x1 = 0.251	–	0.278 ± 0.00311
298.15 K, x1 = 0.299	0.308 ± 0.00335	–
298.15 K, x1 = 0.301	–	0.31 ± 0.00335
298.15 K, x1 = 0.349	0.334 ± 0.00359	–
298.15 K, x1 = 0.351	–	0.335 ± 0.00359
298.15 K, x1 = 0.4	–	0.354 ± 0.00382
298.15 K, x1 = 0.401	0.355 ± 0.00382	–
298.15 K, x1 = 0.45	0.367 ± 0.00406	0.366 ± 0.00382
298.15 K, x1 = 0.499	0.374 ± 0.00406	–
298.15 K, x1 = 0.501	–	0.372 ± 0.00406
298.15 K, x1 = 0.55	0.374 ± 0.00406	0.371 ± 0.00406
298.15 K, x1 = 0.599	0.367 ± 0.00382	–
298.15 K, x1 = 0.601	–	0.363 ± 0.00382
298.15 K, x1 = 0.649	0.352 ± 0.00382	–
298.15 K, x1 = 0.651	–	0.348 ± 0.00382
298.15 K, x1 = 0.699	–	0.327 ± 0.00359
298.15 K, x1 = 0.7	0.331 ± 0.00359	–
298.15 K, x1 = 0.749	–	0.296 ± 0.00335
298.15 K, x1 = 0.75	0.3 ± 0.00335	–
298.15 K, x1 = 0.799	0.262 ± 0.00287	0.258 ± 0.00287
298.15 K, x1 = 0.851	0.211 ± 0.00234	0.207 ± 0.00263
298.15 K, x1 = 0.9	0.154 ± 0.00177	0.15 ± 0.00217
298.15 K, x1 = 0.949	0.0855 ± 0.0011	0.081 ± 0.00174
308.15 K, x1 = 0.048	–	0.0745 ± 0.00158
308.15 K, x1 = 0.097	–	0.142 ± 0.00208
308.15 K, x1 = 0.145	–	0.199 ± 0.00239
308.15 K, x1 = 0.195	–	0.251 ± 0.00287
308.15 K, x1 = 0.243	–	0.293 ± 0.00335
308.15 K, x1 = 0.293	–	0.329 ± 0.00359
308.15 K, x1 = 0.342	–	0.357 ± 0.00382
308.15 K, x1 = 0.392	–	0.379 ± 0.00406
308.15 K, x1 = 0.441	–	0.393 ± 0.00406
308.15 K, x1 = 0.49	–	0.4 ± 0.0043
308.15 K, x1 = 0.541	–	0.4 ± 0.0043
308.15 K, x1 = 0.592	–	0.392 ± 0.00406
308.15 K, x1 = 0.643	–	0.376 ± 0.00406
308.15 K, x1 = 0.693	–	0.354 ± 0.00382
308.15 K, x1 = 0.743	–	0.324 ± 0.00359
308.15 K, x1 = 0.793	–	0.283 ± 0.00311
308.15 K, x1 = 0.897	–	0.169 ± 0.00229
308.15 K, x1 = 0.949	–	0.0908 ± 0.00196
